Experimental data from US7084163B2, “Heterocyclic carboxamides and their use as fungicides” (Bayer Cropscience S.A., priority 2001, dated 2006).

Columns and labels:
[1] = test system: Erisyphe graminis f. sp. tritici; assay: In vivo test on Erisyphe graminis f. sp. tritici (powdery mildew of wheat), preventive spray; conditions: Triticum aestivum; dose of 500 g/ha; wheat plants (Audace variety); contaminated 24 hours after treatment; grading 7 to 14 days after contamination vs control plants; read-out: good (at least 50%) or total protection
Protocol: An aqueous suspension, at a concentration of 1.5%, of the active material tested is obtained by grinding it finely in a formulation of concentrated suspension type. This aqueous suspension is then diluted in water so as to obtain the desired active material concentration. Wheat plants (Audace variety) in starter cups, sown on 50/50 peat soil-pozzulana substrate and grown at 12° C., are treated at the 1-leaf stage (10 cm tall) by spraying with the aqueous suspension described above. Plants, used as controls, are treated with an aqueous solution not containing the active material. After 24 hours, the plants are contaminated by dusting them with Erisyphe graminis f. sp. tritici spores, the dusting being carried out using diseased plants.

Septoria tritici = assay: In vivo test on Septoria tritici (leaf spot of wheat), preventive spray; conditions: Zymoseptoria tritici; dose of 500 g/ha; wheat plants (Scipion variety); contaminated 24 hours after treatment; grading 15 to 20 days after contamination vs control plants; read-out: good (at least 50%) protection
Protocol: (§1) An aqueous suspension, at a concentration of 1.5%, of the active material tested is obtained by grinding it finely in a formulation of concentrated suspension type. This aqueous suspension is then diluted in water so as to obtain the desired active material concentration. Wheat plants (Scipion variety) in starter cups, sown on a 50/50 peat soil-pozzolana substrate and grown at 12° C., are treated at the 1-leaf stage (10 cm tall) by spraying with the aqueous suspension described above. Plants, used as controls, are treated with an aqueous solution not containing the active material.
After 24 hours, the plants are contaminated by spraying them with an aqueous suspension of Septoria tritici spores (500,000 spores per mL). The spores are collected from a 15-day-old culture and are suspended in a nutrient solution composed of: • 1.5 g/L of gelatine • 0.5 g/L of sodium oleate • 24 g/L of PDB
The contaminated wheat plants are incubated for 72 hours at about 20° C. and at 100% relative humidity, and then for 15 days at 80% relative humidity.

Drechslera teres = assay: In vivo test on Drechslera teres (barley net blotch), preventive spray; conditions: Pyrenophora teres, 288 h; dose of 500 g/ha; barley plants (Express variety); contaminated 24 hours after treatment; grading 12 days after contamination vs control plants; read-out: good (at least 50%) protection
Protocol: as §1, with “the active material. tested is” for “the active material tested is”, “material concentration. Barley plants (Express” for “material concentration. Wheat plants (Scipion”, “Barley plants (Express variety) in” for “Wheat plants (Scipion variety) in”
After 24 hours, the plants are contaminated by spraying them with an aqueous suspension of Dreschslera teres spores (12,000 spores per mL). The spores are collected from a 12-day-old culture. The contaminated wheat plants are incubated for 24 hours at about 20° C. and at 100% relative humidity, and then for 12 days at 80% relative humidity.
Grading is carried out 12 days after the contamination, in comparison with the control plants. Under these conditions, good (at least 50%) protection is observed, at a dose of 500 g/ha, with the compounds described as example: 9, 13, 14, 15, 18, 20, 21, 22, 24, 26, 27, 30, 31, 32, 33, 34, 35, 36, 37, 41, 43, 45, 47, 49, 62, 69, 70, 72.

Puccinia recondita = assay: In vivo test on Puccinia recondita (wheat brown rust), preventive spray; conditions: 240 h, dose of 500 g/ha, wheat plants (Scipion variety), contaminated 24 hours after treatment, grading 10 days after contamination vs control plants, read-out: good (at least 50%) protection
Protocol: as §1, with “type,” for “type.”
After 24 hours, the plants are contaminated by spraying them with an aqueous suspension of Puccinia recondita spores (150,000 spores per mL). The contaminated wheat plants are incubated for 24 hours at about 20° C. and at 100% relative humidity, and then for 10 days at 70% relative humidity.
Grading is carried out 10 days after the contamination, in comparison with the control plants. Under these conditions, good (at least 50%) protection is observed, at a dose of 500 g/ha, with the following compounds described as example: 6, 10, 11, 12, 13, 14, 15, 28, 29, 30, 31, 34, 37, 42, 45, 46, 50, 51, 52, 62, 72.

Rhynchosporium secalis = assay: In vivo test on Rhynchosporium secalis (barley leaf scald), preventive spray; conditions: dose of 500 g/ha; barley plants (Express or Barrack variety); contaminated 24 hours after treatment; grading 12/14 days after contamination vs control plants
Protocol: as §1, with “Barley” for “Wheat”, “(Express or Barrack” for “(Scipion”
After 24 hours, the plants are contaminated by spraying them with an aqueous suspension of Rhynchosporium secalis spores (800,000 spores per mL). The contaminated wheat plants are incubated for 48 hours at about 20° C. and at 100% relative humidity, and then for 12/14 days at 80% relative humidity.
Grading is carried out 12/14 days after the contamination, in comparison with the control plants. Under these conditions, good (at least 50%) protection is observed, at a dose of 500 g/ha, with the following compound described as example: 32.

Structure (SMILES)	pest or weed control at 500 g/ha [1] [%]	pest or weed control at 500 g/ha (Septoria tritici) [%]	pest or weed control at 500 g/ha (Drechslera teres) [%]	pest or weed control at 500 g/ha (Puccinia recondita) [%]	good (at least 50%) protection (Rhynchosporium secalis)	melting point [°C]
C=CCOC(=O)Nc1cn(C)c(C(=O)Nc2ccc(Oc3ccc(C(F)(F)F)cc3)cc2)c1OC [compound 5, 1-Methyl-4-[(allyloxycarbonyl)amino]-3-methoxy-1H—N-para-[4-(trifluoromethyl)phenoxy]phenyl-pyrrole-2-carboxamide]	≥ 50	–	–	–	–	–
CCCCOc1ccc(NC(=O)c2c(O)c(N)cn2C)cc1 [compound 9, 1-Methyl-4-amino-3-hydroxy-1H-N-(4-butoxy-phenyl)pyrrole-2-carboxamide]	–	≥ 50	≥ 50	–	–	–
CCOC(=O)c1c(OC)c(C(=O)Nc2ccc(Oc3ccc(C(F)(F)F)cc3)cc2)cn1C [compound 12, 1-methyl-2-ethoxycarbonyl-3-methoxy-1H-N-para-[4-(trifluoromethyl)phenoxy]phenyl-pyrrole-4-carboxamide]	≥ 50	–	–	≥ 50	–	–
COc1c(C(=O)Nc2ccc(Oc3ccc(C(F)(F)F)cc3)cc2)cn(C)c1C(=O)O [compound 13, 1-methyl-2-hydroxycarbonyl-3-methoxy-1H-N-para-[4-(trifluoromethyl)phyenoxy]phenyl-pyrrole-4-carboxamide]	≥ 50	–	≥ 50	≥ 50	–	–
COc1c(C(=O)Nc2ccc(Oc3ccc(C(F)(F)F)cc3)cc2)cn(C)c1N [compound 14, 1-methyl-2-amino-3-methoxy-1H-N-para-[4-(trifluoromethyl)phenoxy]phenyl-pyrrole-4-carboxamide]	≥ 50	–	≥ 50	≥ 50	–	–
CCOC(=O)c1c(O)c(C(=O)Nc2ccc(Oc3ccc(C(F)(F)F)cc3)cc2)cn1C [compound 15, 1-methyl-2-ethoxycarbonyl-3-hydroxy-1H-N-para-[4-(trifluoromethyl)phenoxy]phenyl-pyrrole-4-carboxamide]	≥ 50	≥ 50	≥ 50	≥ 50	–	–
Nc1nccc(C(=O)Nc2ccc(Oc3ccc(C(F)(F)F)cc3)cc2)c1O [compound 19, [4-(Trifluoromethyl)phenoxy]anilino-(2-amino-3-hydroxy)pyridyl-4-carboxamide]	≥ 50	–	–	–	–	–
COC(=O)Nc1noc(C(=O)Nc2ccc(Oc3ccc(C(F)(F)F)cc3)cc2)c1OC [compound 28]	≥ 50	–	–	≥ 50	–	–
Nc1noc(C(=O)Nc2ccc(Oc3ccc(C(F)(F)F)cc3)cc2)c1O [compound 32, 3-Amino4-hydroxy-N-para-[4-(trifluoromethyl)phenoxy]phenylisoxazole-5-carboxamide]	≥ 50	≥ 50	≥ 50	–	at least 50%	–
COC(=O)c1onc(C(=O)Nc2ccc(Oc3ccc(C(F)(F)F)cc3)cc2)c1OC [compound 39]	–	≥ 50	–	–	–	–
Nc1cc(C(=O)Nc2ccc(Oc3ccc(C(F)(F)F)cc3)cc2)ns1 [compound 42, 5-Amino-N-para-[4-(trifluoromethyl)phenoxy]phenyl-isothiazole-3-carboxamide]	≥ 50	≥ 50	–	≥ 50	–	–
Cn1nc(C(=O)Nc2ccc(Oc3cccc(C(F)(F)F)c3)cc2)c(O)c1N [compound 44, 1-Methyl-4-hydroxy-5-amino-N-para-[3-(trifluoromethyl)phenoxy]phenyl pyrazole-3-carboxamide]	≥ 50	–	–	–	–	–
Nc1cncc(C(=O)Nc2ccc(Oc3cccc(C(F)(F)F)c3)cc2)c1O [compound 45, 5-amino-4-hydroxy-N-para-[3-(trifluoromethyl)phenoxy]phenyl nicotinamide]	≥ 50	≥ 50	≥ 50	≥ 50	–	–
COC(=O)c1cncc(C(=O)Nc2ccc(Oc3ccc(C(F)(F)F)c(Cl)c3)cc2)c1OC [compound 49, 5-methoxycarbonyl-4-methoxy-N-para-[3-chloro-4-(trifluoromethyl)phenoxy]phenyl nicotinamide]	≥ 50	≥ 50	≥ 50	–	–	–
COc1c(C(N)=O)cncc1C(=O)Nc1ccc(Oc2ccc(C(F)(F)F)c(Cl)c2)cc1 [compound 50, 5-aminocarbonyl-4-methoxy-N-para-[3-chloro-4-(trifluoromethyl)phenoxy]phenyl nicotinamide]	–	≥ 50	–	≥ 50	–	–
Cc1nc(C)c(-n2cccc2)c(O)c1C(=O)Nc1ccc(OC(F)(F)C(F)F)cc1 [compound 55, 2,6-dimethyl-5-pyrrol-1-yl-4-hydroxy-N-para-(1,1,2,2 tetrafluoroethoxy)phenyl nicotinamide]	≥ 50	–	–	–	–	–
CCCCOc1ccc(NC(=O)c2occc(=O)c2O)cc1 [compound 59, N-(4-Butyloxy-phenyl)-2-(3-hydroxy-γ-pyranone)-carboxamide]	≥ 50	≥ 50	–	–	–	203 to 204
CC(C)N1CC(C(=O)Nc2ccc(Oc3ccccc3)cc2)=C(O)C1=O [compound 72, N-4-(phenoxy)phenyl-(1-N-isopropyl-4-hydroxy-5-dioxo-2,5-dihydro-1H)-pyrrol-3-carboxamide]	–	≥ 50	≥ 50	≥ 50	–	–
CC(C)N1CC(C(=O)Nc2ccc(Oc3ccc(C(F)(F)F)cc3)cc2)=C(O)C1=O [compound 73, N-(4-(4-Trifluormethyl)phenoxy)phenyl-[(1-isopropyl-4-hydroxy-5-dioxo-2,5-dihydro-1H)-pyrrol]-3-carboxamide]	≥ 50	–	–	–	–	–
